In patent US20240148821A1, “PHARMACEUTICAL USE OF CYCLIC PEPTIDE COMPOUND” (CHUGAI SEIYAKU KABUSHIKI KAISHA, priority 2021, published 2024) one finds IC50 data, which are given here for 7 compounds.

Bridge positions count the residues as written; N and C are the ends. Square brackets hold non-standard residues; d marks the D form. Peptide text beside a SMILES is read from it. * marks the point of attachment. hPhe(3-Cl-4-CF3) = N[C@@H](CCc1ccc(C(F)(F)F)c(Cl)c1)C(=O)O; hPhe(3-F,4-CF3) = N[C@@H](CCc1ccc(C(F)(F)F)c(F)c1)C(=O)O; NMePhe(4-Cl) = CN[C@@H](Cc1ccc(Cl)cc1)C(=O)O; Phe(2,6-F2) = N[C@@H](Cc1c(F)cccc1F)C(=O)O; NMePhe(2-Me) = CN[C@@H](Cc1ccccc1C)C(=O)O; NMeGly(cPent) = CN[C@H](C(=O)O)C1CCCC1; Phe(3-I) = N[C@@H](Cc1cccc(I)c1)C(=O)O; NMeY = CN[C@@H](Cc1ccc(O)cc1)C(=O)O; NMeCha = CN[C@@H](CC1CCCCC1)C(=O)O; Gly(N-(CH2)2OEt) = CCOCCNCC(=O)O; NMeChg = CN[C@H](C(=O)O)C1CCCCC1; NMeD = CN[C@@H](CC(=O)O)C(=O)O; NMeL = CN[C@@H](CC(C)C)C(=O)O; NMeV = CN[C@H](C(=O)O)C(C)C; d(β3hA) = C[C@@H](N)CC(=O)O; NMeAbu = CC[C@H](NC)C(=O)O; NMeA = CN[C@@H](C)C(=O)O; NMeAib = CNC(C)(C)C(=O)O; Nle = CCCC[C@H](N)C(=O)O; Piperidide = C1CCN(*)CC1; Pyrrolidide = C1CCN(*)C1; Ac5c = NC1(C(=O)O)CCCC1; Aze = O=C(O)[C@@H]1CCN1; NBuGly = CCCCNCC(=O)O; Sar = CNCC(=O)O; Propyl = CCC*

The test system of this experiment is Human pancreatic cancer cell line AsPC-1 (G12D mutation Kras). Nature of the experiment: AsPC-1 cell growth inhibition (AsPC-1 CGI). The class given is cell-based. The note with it: read-out: AsPC-1 cell growth inhibition, 50% growth inhibitory concentration (IC50 value); 96 hours, CellTiter-Glo, values classified in ranges.
Procedure: Test compounds were serially dilated with dimethyl sulfoxide, and 200 nL was then dispensed to a U-bottom 96-well plate using Labcyte Echo. […] The cell suspension was dispensed to a. plate containing a test compound at 100 μL per well and incubated at 37° C. in a 5% carbon dioxide gas incubator. 96 hours later, 80 μL of CellTiter-Glo (Promega) was added to each well and fluorescence was measured.
Consider `CCCOC[C@@H]1NC(=O)[C@H](CC(C)C)N(C)C(=O)C[C@@H](C(=O)N2CCCCC2)N(C)C(=O)[C@H](C2CCCCC2)N(C)C(=O)C2(CCCC2)NC(=O)[C@@H]2CCCN2C(=O)[C@H](CCc2ccc(C(F)(F)F)c(Cl)c2)NC(=O)CN(C)C(=O)[C@H](CC2CCCCC2)N(C)C(=O)CN(C)C(=O)CN(C)C1=O` [Compound 1736] ([NMeL]S(Propyl)[Sar][Sar][NMeCha][Sar][hPhe(3-Cl-4-CF3)]P[Ac5c][NMeChg][NMeD]-Piperidide; lactam N-11), for which the IC50 was over 0.5 µM.
Regarding `CCCC[C@@H]1NC(=O)[C@H](Cc2c(F)cccc2F)NC(=O)CN(C)C(=O)[C@H](Cc2ccc(OC)cc2)N(C)C(=O)[C@@H]2CCN2C(=O)[C@H](C)N(C)C(=O)[C@H]([C@@H](C)CC)NC(=O)[C@H](CC)N(C)C(=O)C[C@@H](C(=O)N2CCCCC2)N(C)C(=O)[C@H](CC(C)C)NC(=O)C(C)(C)N(C)C1=O` [Compound 1187] ([NMeAbu]I[NMeA][Aze][NMeY](Me)[Sar][Phe(2,6-F2)][Nle][NMeAib]L[NMeD]-Piperidide; lactam N-11), the IC50 was over 0.5 µM.
`CC[C@H](C)[C@@H]1NC(=O)[C@H](C)N(C)C(=O)C[C@@H](C)NC(=O)[C@H](C2CCCC2)N(C)C(=O)C2(CCCC2)NC(=O)[C@@H]2CCCN2C(=O)[C@H](CCc2ccc(C(F)(F)F)c(Cl)c2)NC(=O)CN(C)C(=O)[C@H](CC2CCCCC2)N(C)C(=O)CN(C)C(=O)CN(C)C1=O` [Compound 1478] (cyclo([Ac5c][NMeGly(cPent)][d(β3hA)][NMeA]I[Sar][Sar][NMeCha][Sar][hPhe(3-Cl-4-CF3)]P)): the IC50 is over 0.5 µM.
As to `CCOCCN1CC(=O)N(C)CC(=O)N(C)[C@@H](CC2CCCCC2)C(=O)N(C)CC(=O)N[C@@H](CCc2ccc(C(F)(F)F)c(Cl)c2)C(=O)N2CCC[C@H]2C(=O)NC2(CCCC2)C(=O)N(C)[C@@H](C(C)C)C(=O)N[C@H](C)CC(=O)N(C)[C@@H](CC(C)C)C(=O)N[C@@H]([C@@H](C)CC)C1=O` [Compound 329] (cyclo([Ac5c][NMeV][d(β3hA)][NMeL]I[Gly(N-(CH2)2OEt)][Sar][NMeCha][Sar][hPhe(3-Cl-4-CF3)]P)), the IC50 is over 0.5 µM.
In the case of `CCCC[C@@H]1NC(=O)[C@H](Cc2cccc(I)c2)NC(=O)CN(C)C(=O)[C@H](Cc2ccc(Cl)cc2)N(C)C(=O)CN(C)C(=O)CN(C)C(=O)[C@H]([C@@H](C)CC)NC(=O)[C@H](CC(C)C)N(C)C(=O)C[C@@H](C(=O)N2CCCCC2)N(C)C(=O)[C@H](CC(C)C)NC(=O)[C@H](Cc2ccccc2C)N(C)C1=O` [Compound 696] ([NMeL]I[Sar][Sar][NMePhe(4-Cl)][Sar][Phe(3-I)][Nle][NMePhe(2-Me)]L[NMeD]-Piperidide; lactam N-11), the IC50 was over 0.5 µM.
In the case of `CCCCN1CC(=O)N(C)CC(=O)N(C)[C@@H](CC2CCCCC2)C(=O)N(C)CC(=O)N[C@@H](CCc2ccc(C(F)(F)F)c(Cl)c2)C(=O)N2CCC[C@H]2C(=O)NC2(CCCC2)C(=O)N(C)[C@@H](C(C)C)C(=O)N[C@H](C)CC(=O)N(C)[C@@H](CC(C)C)C(=O)N[C@@H]([C@@H](C)CC)C1=O` [Compound 123] (cyclo([Ac5c][NMeV][d(β3hA)][NMeL]I[NBuGly][Sar][NMeCha][Sar][hPhe(3-Cl-4-CF3)]P)), the IC50 was over 0.5 µM.
As for `CC[C@H](C)[C@@H]1NC(=O)[C@H](CC(C)C)N(C)C(=O)C[C@@H](C(=O)N2CCCC2)N(C)C(=O)[C@H](CC(C)C)NC(=O)C(C)(C)N(C)C(=O)[C@H](CC(C)C)NC(=O)[C@H](CCc2ccc(C(F)(F)F)c(F)c2)NC(=O)CN(C)C(=O)[C@H](CC2CCCCC2)N(C)C(=O)CN(C)C(=O)CN(C)C1=O` [Compound 312] ([NMeL]I[Sar][Sar][NMeCha][Sar][hPhe(3-F,4-CF3)]L[NMeAib]L[NMeD]-Pyrrolidide; lactam N-11), the IC50 is over 0.5 µM.
